Results taken from US6528048B1, “Ophthalmic solutions” (Rohto Pharmaceutical Co., Ltd., priority 1998, dated 2003).

Test system: rabbit corneal epithelial cells
Assay: Cytotoxicity, Neutral red assay
Assay type: cell-based
Details: cultured 2 days
Description: Cytotoxicity of the compound (3) was evaluated by conducting a test according to the method of Neutral red assay using rabbit corneal epithelial cells of a CornePack kit (Kurabo Industries, Ltd.). The frozen cells of the primary culture were inoculated at a density of 4000 cells/cm^2 in a 25-cm^2 flask. The cells were cultured at 37° C. under an atmosphere of 5% CO2 for 5 days (the secondary culture) and then 100 μl aliquots of them were inoculated in the wells of a 96-well multi-plate at a cell density of 2500 cells/well. The culture was continued at 37° C. under an atmosphere of 5% CO2 for 3 days (tertiary culture). […] A 100 μl aliquot of the solutions was added into each well containing the corneal epithelial cells of the tertiary culture. The cells were further cultured at 37° C. under an atmosphere of 5% CO2 for 2 days. A 100 μl aliquot of a Neutral red solution (about 150 μg/ml) was added into each well. The cells were further cultured at 37° C. under an atmosphere of 5% CO2 for 2 hours to incorporate Neutral red into lysosomes of the viable cells. Then the culture supernatants were discarded by inverting the plate. A 200 μl aliquot of a solution containing formalin and calcium chloride were added into each well and the cells were fixed for 1 minute to improve the cell adhesion to the plate. The remaining Neutral red was washed out from the wells. Subsequently, the supernatants in the wells were discarded and 100 μl aliquots of a mixture consisting of acetic acid and ethanol were added to the wells. The plate was allowed to stand for 20 minutes to extract Neutral red incorporated in the viable cells. The amount of Neutral red was determined by measuring the absorbance at a wavelength of 540 nm. The averaged absorbance value of the blank (the measured value, which was obtained by the same assay procedure but in the absence of Neutral red, for the untreated control cells cultured under the same condition) was subtracted from the measured value of the sample to give the correction absorbance value. The viable cell rate was calculated from the ratio of the sample absorbance to the absorbance for the untreated cells according to the following equation. Viable cell rate in each plate=(Averaged absorbance of each test solution/Averaged absorbance of the untreated control)×100

Compound	Viable cell rate (test solution 1.0 μg/ml) [%]	Viable cell rate (test solution 2.5 μg/ml) [%]	Viable cell rate (test solution 5.0 μg/ml) [%]	Viable cell rate (test solution 10.0 μg/ml) [%]	Viable cell rate (test solution 0.5 μg/ml) [%]
N=C(NCCCCCCNC(=N)NC(=N)Nc1ccc(Cl)cc1)NC(=N)Nc1ccc(Cl)cc1.O=C(O)[C@H](O)[C@@H](O)[C@H](O)[C@H](O)CO.O=C(O)[C@H](O)[C@@H](O)[C@H](O)[C@H](O)CO [Chlorhexidine gluconate]	103	74	49	3	
Benzalkonium chloride	52	49	2		60
